# Laboratory results published in PMC11353420, “Anti-Inflammatory, Cytotoxic, and Genotoxic Effects of Soybean Oligopeptides Conjugated with Mannose” (Foods, 2024).
# Assays:
# 3T3-L1 Mature-adipocytes = test: SRB cytotoxicity assay, 3T3-L1 mature adipocytes; type: cell-based, murine; settings: 48 h
# Method: The pre-adipocyte 3T3-L1 cell line was differentiated to become mature adipocytes by culturing the cells to 100% confluence in 10% calf serum DMEM (CS medium), as Day 0 in a 96 well-plate. After post-confluence, the cells were incubated with the induction medium as a differentiation initiation medium (DMEM […] 1 μM DEX, 0.5 mM IBMX, 167 nM insulin, and 10% FBS) for 3 days (Days 1–3). After that, cells were cultured in a differentiation medium as an adipogenic differentiation medium (differentiation media: DMEM containing 167 nM insulin and 10% FBS) for 3 days (Days 4–6). Finally, maturation was induced in an induced-lipid accumulation medium (maturation media: DMEM containing 167 nM insulin and 10% FBS) for 6 days (Days 7–12). The mature adipocytes were then used for toxicity testing.
# The cytotoxicity of the oligopeptide and its conjugated forms on HepG2, HEK293, LX-2, and RAW 264.7 cells, pre- and mature 3T3-L1 adipocytes, and hPBMCs was analyzed by a sulforhodamine (SRB) assay to obtain their non-toxic concentration for further experiments and as screening data for their in vitro safety. The cells were plated for 12 h in 96-well plates and then treated with the oligopeptide and its conjugated sugar at a concentration of 0–1000 µg/mL for 48 h. Dimethyl sulfoxide (DMSO) was used as a vehicle control (the untreated control). At the indicated time, the cells were then fixed and subjected to an SRB assay. The absorbance was measured at 510 nm by spectrophotometry (Gen5, BioTek, Winooski, VT, USA), and the cell viability was calculated as the ratio of the treatment versus untreated control. The data are represented as the mean ± standard deviation of three replicates and are expressed relative to the untreated control. The percentage of cell survival was calculated as follows:% cell survival = (Abs_extract/Abs_control) × 100
# [1] = test system: LX-2 (Human hepatic stellate cell line); test: SRB cytotoxicity assay, LX-2; type: cell-based
# Description: (§1) HEK293 (Human embryonic kidney cell line), HepG2 (Human liver carcinoma cell line), LX-2 (Human hepatic stellate cell line), and 3T3-L1 (Murine preadipocyte cell line) cells were obtained from the American Type Culture Collection (ATCC), Bethesda, MD, USA.
# [2] = SRB cytotoxicity assay, LX-2; type: cell-based, human; settings: human, LX-2 cells; LX-2, 48 h, SRB
# Description: as §1
# RAW 264.7 cells = test: Cell viability (SRB) of RAW 264.7 in the presence of LPS; type: cell-based, murine; settings: up to 400 µg/mL, LPS 1 µg/mL, 24 h
# Drosophila melanogaster = test: Somatic mutation and recombination test (SMART, wing spot test); type: in vivo; set-up: key to Statistical diagnosis vs DI (negative control), Small Single (1–2 Cells) / Statistical diagnosis vs DI (negative control), Large Single (>2 Cells) / Statistical diagnosis vs DI (negative control), Twin / Statistical diagnosis vs DI (negative control), Total Spots: + = positive; − = negative; i = inconclusive; settings: for Frequency of Mutant Spots per Individual (Number of Spots), Large Single (>2 Cells) / Frequency of Mutant Spots per Individual (Number of Spots), Small Single (1–2 Cells) / Frequency of Mutant Spots per Individual (Number of Spots), Total Spots / Frequency of Mutant Spots per Individual (Number of Spots), Twin: 40 wings
# Method: In brief, two strains of fruit flies, including mwh/mwh and ORR; flr^3/In(3LR) TM3, ri p^p sep l(3)89Aa bx^34e e Bd^S, were mated. […] After hatching, forty round wings were collected and analyzed for mutant spots (single, large, and twin spots). The statistical analysis for the wing spot test was performed as previously described. The Drosophila study was approved by the Institute of Nutrition—Mahidol University Institutional Animal Care and Use Committee (INMU-IACUC) (COA. No. INMU-IACUC 2023/01).
# [3] = SRB cytotoxicity assay, PBMCs; type: cell-based, human; settings: human, peripheral blood mononuclear cells (PBMCs); PBMCs, 800 µg/mL; read-out: % Cell Viability (n = 5)
# Description: (§2) As described by […] et al., human peripheral blood mononuclear cells (PBMCs) and red blood cells (RBCs) were isolated from human blood samples [41]. Human blood samples of healthy subjects obtained from Maharaj Hospital, Chiang Mai, Thailand, were anonymized and kept in a heparinized tube by the laboratory. RBCs were collected and used to determined hemolysis induction by a hemolysis assay. Ficoll-Hypaque solution was used to isolate PBMCs, as described in the manufacturer's instructions. A certificate of exemption by the Research Ethics Committee of the Faculty of Medicine, Chiang Mai University (No. EXEMPTION 8989/2022), was granted. Consent to participate was not applicable as all data were anonymized. All methods were carried out in accordance with relevant guidelines and regulations.
# [4] = test system: human peripheral blood mononuclear cells (PBMCs); test: SRB cytotoxicity assay, PBMCs; type: cell-based; settings: up to 800 µg/mL
# Description: as §2
structure (smiles),measurement,setting,value
"OC[C@H]1OC(O)[C@@H](O)[C@@H](O)[C@@H]1O (stereo partly drawn) [Man, D-mannose]",IC50,"3T3-L1 Mature-adipocytes; Mus musculus, 3T3-L1 Mature-adipocytes, SRB, read-out: IC50",> 1000 µg/mL
same,toxicity to cells,"3T3-L1 Mature-adipocytes; mature-3T3-L1, up to 1000 µg/mL",not toxic
same,IC50,"[1]; Homo sapiens, LX-2, 48 h, SRB, read-out: IC50",> 1000 µg/mL
same,toxicity to cells,"[1]; LX-2, up to 1000 µg/mL, 48 h",not toxic
same,IC20 at 48 h,[2],> 1000 µg/mL
same,cell viability of RAW 264.7 cells in the presence of LPS,RAW 264.7 cells,did not change
same,"Statistical diagnosis vs DI (negative control), Large Single (>2 Cells)",Drosophila melanogaster; 62.5 µg/mL,i
same,"Statistical diagnosis vs DI (negative control), Small Single (1–2 Cells)",Drosophila melanogaster; 62.5 µg/mL,−
same,"Statistical diagnosis vs DI (negative control), Twin",Drosophila melanogaster; 62.5 µg/mL,−
same,"Frequency of Mutant Spots per Individual (Number of Spots), Large Single (>2 Cells)",Drosophila melanogaster; 62.5 µg/mL,0.03 (1)
same,"Frequency of Mutant Spots per Individual (Number of Spots), Small Single (1–2 Cells)",Drosophila melanogaster; 62.5 µg/mL,0.40 (16)
same,"Frequency of Mutant Spots per Individual (Number of Spots), Total Spots",Drosophila melanogaster; 62.5 µg/mL,0.43 (17)
same,"Frequency of Mutant Spots per Individual (Number of Spots), Twin",Drosophila melanogaster; 62.5 µg/mL,0.00 (0)
same,"Statistical diagnosis vs DI (negative control), Large Single (>2 Cells)",Drosophila melanogaster; 125 µg/mL,i
same,"Statistical diagnosis vs DI (negative control), Small Single (1–2 Cells)",Drosophila melanogaster; 125 µg/mL,−
same,"Statistical diagnosis vs DI (negative control), Total Spots",Drosophila melanogaster; 125 µg/mL,−
same,"Statistical diagnosis vs DI (negative control), Twin",Drosophila melanogaster; 125 µg/mL,−
same,"Frequency of Mutant Spots per Individual (Number of Spots), Large Single (>2 Cells)",Drosophila melanogaster; 125 µg/mL,0.03 (1)
same,"Frequency of Mutant Spots per Individual (Number of Spots), Small Single (1–2 Cells)",Drosophila melanogaster; 125 µg/mL,0.50 (20)
same,"Frequency of Mutant Spots per Individual (Number of Spots), Total Spots",Drosophila melanogaster; 125 µg/mL,0.53 (21)
same,"Frequency of Mutant Spots per Individual (Number of Spots), Twin",Drosophila melanogaster; 125 µg/mL,0.00 (0)
same,"Statistical diagnosis vs DI (negative control), Large Single (>2 Cells)",Drosophila melanogaster; 250 µg/mL,i
same,"Statistical diagnosis vs DI (negative control), Small Single (1–2 Cells)",Drosophila melanogaster; 250 µg/mL,−
same,"Statistical diagnosis vs DI (negative control), Total Spots",Drosophila melanogaster; 250 µg/mL,−
same,"Statistical diagnosis vs DI (negative control), Twin",Drosophila melanogaster; 250 µg/mL,−
same,"Frequency of Mutant Spots per Individual (Number of Spots), Large Single (>2 Cells)",Drosophila melanogaster; 250 µg/mL,0.03 (1)
same,"Frequency of Mutant Spots per Individual (Number of Spots), Small Single (1–2 Cells)",Drosophila melanogaster; 250 µg/mL,0.43 (17)
same,"Frequency of Mutant Spots per Individual (Number of Spots), Total Spots",Drosophila melanogaster; 250 µg/mL,0.45 (18)
same,"Frequency of Mutant Spots per Individual (Number of Spots), Twin",Drosophila melanogaster; 250 µg/mL,0.00 (0)
same,"Statistical diagnosis vs DI (negative control), Large Single (>2 Cells)",Drosophila melanogaster; 500 µg/mL,i
same,"Statistical diagnosis vs DI (negative control), Small Single (1–2 Cells)",Drosophila melanogaster; 500 µg/mL,−
same,"Statistical diagnosis vs DI (negative control), Total Spots",Drosophila melanogaster; 500 µg/mL,−
same,"Statistical diagnosis vs DI (negative control), Twin",Drosophila melanogaster; 500 µg/mL,−
same,"Frequency of Mutant Spots per Individual (Number of Spots), Large Single (>2 Cells)",Drosophila melanogaster; 500 µg/mL,0.03 (1)
same,"Frequency of Mutant Spots per Individual (Number of Spots), Small Single (1–2 Cells)",Drosophila melanogaster; 500 µg/mL,0.25 (10)
same,"Frequency of Mutant Spots per Individual (Number of Spots), Total Spots",Drosophila melanogaster; 500 µg/mL,0.28 (11)
same,"Frequency of Mutant Spots per Individual (Number of Spots), Twin",Drosophila melanogaster; 500 µg/mL,0.00 (0)
same,"Statistical diagnosis vs DI (negative control), Large Single (>2 Cells)",Drosophila melanogaster; 1000 µg/mL,i
same,"Statistical diagnosis vs DI (negative control), Small Single (1–2 Cells)",Drosophila melanogaster; 1000 µg/mL,−
same,"Statistical diagnosis vs DI (negative control), Total Spots",Drosophila melanogaster; 1000 µg/mL,−
same,"Statistical diagnosis vs DI (negative control), Twin",Drosophila melanogaster; 1000 µg/mL,−
same,"Frequency of Mutant Spots per Individual (Number of Spots), Large Single (>2 Cells)",Drosophila melanogaster; 1000 µg/mL,0.03 (1)
same,"Frequency of Mutant Spots per Individual (Number of Spots), Small Single (1–2 Cells)",Drosophila melanogaster; 1000 µg/mL,0.25 (10)
same,"Frequency of Mutant Spots per Individual (Number of Spots), Total Spots",Drosophila melanogaster; 1000 µg/mL,0.28 (11)
same,"Frequency of Mutant Spots per Individual (Number of Spots), Twin",Drosophila melanogaster; 1000 µg/mL,0.00 (0)
same,"Statistical diagnosis vs DI (negative control), Large Single (>2 Cells)",Drosophila melanogaster; 2000 µg/mL,−
same,"Statistical diagnosis vs DI (negative control), Small Single (1–2 Cells)",Drosophila melanogaster; 2000 µg/mL,−
same,"Statistical diagnosis vs DI (negative control), Total Spots",Drosophila melanogaster; 2000 µg/mL,−
same,"Statistical diagnosis vs DI (negative control), Twin",Drosophila melanogaster; 2000 µg/mL,−
same,"Frequency of Mutant Spots per Individual (Number of Spots), Large Single (>2 Cells)",Drosophila melanogaster; 2000 µg/mL,0.00 (0)
same,"Frequency of Mutant Spots per Individual (Number of Spots), Small Single (1–2 Cells)",Drosophila melanogaster; 2000 µg/mL,0.23 (9)
same,"Frequency of Mutant Spots per Individual (Number of Spots), Total Spots",Drosophila melanogaster; 2000 µg/mL,0.23 (9)
same,"Frequency of Mutant Spots per Individual (Number of Spots), Twin",Drosophila melanogaster; 2000 µg/mL,0.00 (0)
same,"Statistical diagnosis vs DI (negative control), Large Single (>2 Cells)",Drosophila melanogaster; 5000 µg/mL,−
same,"Statistical diagnosis vs DI (negative control), Small Single (1–2 Cells)",Drosophila melanogaster; 5000 µg/mL,−
same,"Statistical diagnosis vs DI (negative control), Total Spots",Drosophila melanogaster; 5000 µg/mL,−
same,"Statistical diagnosis vs DI (negative control), Twin",Drosophila melanogaster; 5000 µg/mL,−
same,"Frequency of Mutant Spots per Individual (Number of Spots), Large Single (>2 Cells)",Drosophila melanogaster; 5000 µg/mL,0.00 (0)
same,"Frequency of Mutant Spots per Individual (Number of Spots), Small Single (1–2 Cells)",Drosophila melanogaster; 5000 µg/mL,0.18 (7)
same,"Frequency of Mutant Spots per Individual (Number of Spots), Total Spots",Drosophila melanogaster; 5000 µg/mL,0.18 (7)
same,"Frequency of Mutant Spots per Individual (Number of Spots), Twin",Drosophila melanogaster; 5000 µg/mL,0.00 (0)
same,DNA mutations / genome safety,"Drosophila melanogaster; all doses, up to 5000 µg/mL",did not trigger DNA mutations
same,"viability at 48 h, 800 µg/mL",[3],106 ± 13.3%
same,toxic effects to hPBMCs,[4],did not show any toxic effects
